Laboratory results published in the NIST ThermoML archive (doi:10.1021/je301344y).
± gives the expanded uncertainty stated by the source.

Conditions: Fluid (supercritical or subcritical phases), Pulse-echo method

C=CC [propene]
Conditions | speed of sound [m/s]
320 K, 5106.4 kPa | 632.55 ± 2.8
320 K, 6107.1 kPa | 653.68 ± 2.7
320 K, 7107.8 kPa | 673.35 ± 2.6
320 K, 8108.4 kPa | 691.81 ± 2.5
320 K, 9108.4 kPa | 709.24 ± 2.5
320 K, 10109 kPa | 725.77 ± 1.3
320 K, 12611 kPa | 763.9 ± 1.2
320 K, 15112 kPa | 798.37 ± 1.2
320 K, 17614 kPa | 829.99 ± 1.2
320 K, 20116 kPa | 859.32 ± 1.1
320 K, 25119 kPa | 912.52 ± 1.1
320 K, 30123 kPa | 960.18 ± 1.1
320 K, 35126 kPa | 1003.6 ± 1
320 K, 40130 kPa | 1043.6 ± 1
320 K, 45133 kPa | 1080.8 ± 1
320 K, 50136 kPa | 1115.7 ± 0.98
320 K, 60143 kPa | 1179.8 ± 1
320 K, 70150 kPa | 1237.9 ± 0.99
320 K, 80157 kPa | 1291.2 ± 0.99
320 K, 90164 kPa | 1340.7 ± 0.99
340.01 K, 4105 kPa | 453.16 ± 3.3
340.01 K, 5105.7 kPa | 489.49 ± 3.3
340.01 K, 6106.3 kPa | 520.38 ± 3.1
340.01 K, 7107 kPa | 547.59 ± 2.9
340.01 K, 8107.7 kPa | 572.12 ± 2.7
340.01 K, 9108.2 kPa | 594.57 ± 2.6
340.01 K, 10109 kPa | 615.36 ± 1.3
340.01 K, 12611 kPa | 661.83 ± 1.3
340.01 K, 15113 kPa | 702.48 ± 1.2
340.01 K, 17615 kPa | 738.94 ± 1.2
340.01 K, 20117 kPa | 772.18 ± 1.1
340.01 K, 25119 kPa | 831.39 ± 1.1
340.01 K, 30122 kPa | 883.53 ± 1
340.01 K, 35126 kPa | 930.45 ± 1
340.01 K, 40129 kPa | 973.32 ± 1
340.01 K, 45133 kPa | 1012.9 ± 0.99
340.01 K, 50136 kPa | 1049.9 ± 0.96
340.01 K, 60143 kPa | 1117.3 ± 0.97
340.01 K, 70150 kPa | 1178 ± 0.97
340.02 K, 80157 kPa | 1233.5 ± 0.96
340.02 K, 90164 kPa | 1284.8 ± 0.97
340.02 K, 100171 kPa | 1332.5 ± 0.99
360 K, 5105 kPa | 311.26 ± 3.7
360 K, 6105.7 kPa | 370.15 ± 3.9
360 K, 7106.5 kPa | 413.28 ± 3.3
360 K, 8107.1 kPa | 448.54 ± 3
360 K, 9107.8 kPa | 478.92 ± 2.8
360 K, 10109 kPa | 505.89 ± 1.3
360 K, 12610 kPa | 563.32 ± 1.3
360 K, 15112 kPa | 611.37 ± 1.2
360 K, 17614 kPa | 653.26 ± 1.1
360 K, 20116 kPa | 690.72 ± 1.1
360 K, 25119 kPa | 756.2 ± 1.1
360 K, 30122 kPa | 812.8 ± 1
360 K, 35127 kPa | 863.13 ± 0.99
360 K, 40130 kPa | 908.71 ± 0.98
360 K, 45134 kPa | 950.58 ± 0.96
360 K, 50137 kPa | 989.41 ± 0.93
360 K, 60144 kPa | 1059.9 ± 0.95
360 K, 70151 kPa | 1123 ± 0.94
360 K, 80158 kPa | 1180.4 ± 0.94
360 K, 90165 kPa | 1233.3 ± 0.94
360 K, 100172 kPa | 1282.4 ± 0.97
380 K, 7106.1 kPa | 268.33 ± 3.3
380 K, 7357.4 kPa | 283.48 ± 3.3
380 K, 7606.5 kPa | 297.29 ± 3.2
380 K, 7858.2 kPa | 310.32 ± 3.1
380 K, 8106.9 kPa | 322.34 ± 3.2
380 K, 9107.6 kPa | 364.56 ± 3.1
380 K, 10108 kPa | 399.84 ± 1.2
380 K, 12610 kPa | 470.55 ± 1.3
380 K, 15112 kPa | 526.72 ± 1.2
380 K, 17613 kPa | 574.26 ± 1.1
380 K, 20116 kPa | 615.93 ± 1
380 K, 25119 kPa | 687.43 ± 1
380 K, 30123 kPa | 748.22 ± 0.99
380 K, 35126 kPa | 801.68 ± 0.96
380 K, 40130 kPa | 849.74 ± 0.95
380 K, 45134 kPa | 893.62 ± 0.94
380 K, 50137 kPa | 934.15 ± 0.9
380 K, 60144 kPa | 1007.4 ± 0.92
380 K, 70152 kPa | 1072.6 ± 0.92
380 K, 80159 kPa | 1131.7 ± 0.92
380 K, 90166 kPa | 1186 ± 0.92
380 K, 100173 kPa | 1236.3 ± 0.95
400 K, 10108 kPa | 309.3 ± 1.1
400 K, 11109 kPa | 343.84 ± 1.2
400 K, 12110 kPa | 374.75 ± 1.2
400 K, 13110 kPa | 402.68 ± 1.1
400 K, 14111 kPa | 428.21 ± 1.2
400 K, 15111 kPa | 451.76 ± 1.1
400 K, 16111 kPa | 473.63 ± 0.99
400 K, 17110 kPa | 494.15 ± 1.1
400 K, 18112 kPa | 513.48 ± 1
400 K, 19112 kPa | 531.79 ± 1.1
400 K, 20113 kPa | 549.2 ± 0.97
400 K, 22615 kPa | 589.41 ± 1
400 K, 25117 kPa | 625.81 ± 0.93
400 K, 30121 kPa | 690.16 ± 0.95
400 K, 35124 kPa | 746.29 ± 0.93
400 K, 40128 kPa | 796.45 ± 0.92
400 K, 45132 kPa | 842.05 ± 0.91
400 K, 50135 kPa | 884.02 ± 0.87
400 K, 60142 kPa | 959.55 ± 0.89
400.01 K, 70148 kPa | 1026.5 ± 0.89
400.01 K, 80156 kPa | 1087 ± 0.89
400.01 K, 90163 kPa | 1142.6 ± 0.9
400.01 K, 100170 kPa | 1194 ± 0.92
420 K, 12107 kPa | 315 ± 0.91
420 K, 13108 kPa | 341.84 ± 0.96
420 K, 14109 kPa | 367.29 ± 0.97
420 K, 15110 kPa | 391.25 ± 0.98
420 K, 16110 kPa | 413.79 ± 0.98
420 K, 17113 kPa | 435.07 ± 0.97
420 K, 18114 kPa | 455.17 ± 0.97
420 K, 19115 kPa | 474.24 ± 0.96
420 K, 20116 kPa | 492.39 ± 0.93
420 K, 22618 kPa | 534.32 ± 0.94
420 K, 25120 kPa | 572.24 ± 0.9
420 K, 30123 kPa | 639.09 ± 0.91
420 K, 35127 kPa | 697.19 ± 0.9
420 K, 40130 kPa | 748.95 ± 0.88
420 K, 45134 kPa | 795.89 ± 0.88
420 K, 50138 kPa | 838.99 ± 0.85
420 K, 60145 kPa | 916.37 ± 0.87
420 K, 70152 kPa | 984.82 ± 0.87
420 K, 80159 kPa | 1046.6 ± 0.89
